Experimental findings from patent US20070249590A1, “Substituted indolo[2,3-a]pyrrolo[3,4-c]carbazole compounds useful in treating kinase disorders” (priority 2005, published 2007) are described below.

The assay concerns the target T1, JAK3 (JH1 and JH2 domain) (Homo sapiens, UniProt P52333).
T1 sequence (P52333 521-1111 limits assumed): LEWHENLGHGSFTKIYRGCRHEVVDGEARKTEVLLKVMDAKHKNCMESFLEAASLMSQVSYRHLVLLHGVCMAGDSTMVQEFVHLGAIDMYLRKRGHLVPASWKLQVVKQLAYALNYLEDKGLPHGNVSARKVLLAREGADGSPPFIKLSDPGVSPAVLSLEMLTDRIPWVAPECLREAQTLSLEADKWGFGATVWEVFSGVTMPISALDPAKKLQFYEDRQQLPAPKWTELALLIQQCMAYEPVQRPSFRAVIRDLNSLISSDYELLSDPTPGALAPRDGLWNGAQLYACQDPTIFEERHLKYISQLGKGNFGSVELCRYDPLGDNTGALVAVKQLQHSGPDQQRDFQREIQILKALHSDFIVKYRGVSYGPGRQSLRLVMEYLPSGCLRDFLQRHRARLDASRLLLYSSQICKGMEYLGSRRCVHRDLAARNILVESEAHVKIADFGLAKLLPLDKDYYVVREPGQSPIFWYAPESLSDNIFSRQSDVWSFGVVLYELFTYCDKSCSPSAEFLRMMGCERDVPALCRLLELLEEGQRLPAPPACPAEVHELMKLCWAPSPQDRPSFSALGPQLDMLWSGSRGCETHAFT
Briefly: JAK3 Kinase Assay (ELISA of peptide substrate phosphorylation). It is filed as biochemical. As to conditions: purified JAK3 enzyme, 10 μM ATP, biotinylated peptide substrate, 1 hour at room temperature. Put shortly: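 Sf21-baculovirus-expressed JAK3 (JH1+JH2), glutathione-bead purified, with biotinylated peptide substrate (in buffer containing 10 μM ATP) in HEPES pH 7.5/MgCl2/DTT, 1 h RT. Product was captured on Neutravidin, detected with HRP anti-phosphotyrosine (PY99)/TMB, OD 450/650 nm. Triplicate 16-point half-log series from 200 μM gave IC50; otherwise % inhibition at 1 μM.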
A general note: ELISA stands for enzyme-linked immunosorbent assay.
For the molecule `CC1(C)O[C@@H]2Cn3c4ccccc4c4c5c(c6c7ccccc7n(c6c43)C[C@H]2O1)C(=O)NC5` [Cpd 17, 12,13-[(4R,5R)-2,2-dimethyl-[1,3]dioxolo[4,5-b]butan-1,4-yl]-6,7,12,13-tetrahydro-5-oxo-5H-indolo[2,3-a]pyrrolo[3,4-c]carbazole], the IC50 was 45 nM.

As to `O=C1NCc2c1c1c3ccccc3n3c1c1c2c2ccccc2n1CC(CO)C3` (stereo not drawn) [Cpd 23, 12,13-(2-hydroxymethyl-propan-1,3-yl)-6,7,12,13-tetrahydro-5-oxo-5H-indolo[2,3-a]pyrrolo[3,4-c]carbazole], the IC50 came out at 22 nM.

Regarding `O=C1NC(=O)c2c1c1c3ccccc3n3c1c1c2c2ccccc2n1CC(OC(=O)N1CCCCC1)C(O)C3` (stereo not drawn) [Cpd 99, 12,13-[2-(piperidin-1-yl-carbonyloxy)-3-hydroxy-butan-1,4-yl]-12,13-dihydro-5,7-dioxo-6H-indolo[2,3-a]pyrrolo[3,4-c]carbazole], the IC50 came to 184 nM.

Turning to `O=C1NC(=O)c2c1c1c3ccccc3n3c1c1c2c2ccccc2n1CC(O)(C(=O)NCc1ccncc1)C(O)C3` (stereo not drawn) [Cpd 117, 12,13-{2-[(pyridin-4-ylmethyl)carbamoyl]-2,3-dihydroxy-butan-1,4-yl}-12,13-dihydro-5,7-dioxo-6H-indolo[2,3-a]pyrrolo[3,4-c]carbazole], the IC50 came to 15 nM.

As to `O=C1NC(=O)c2c1c1c3ccccc3n3c1c1c2c2ccccc2n1CC(OC(=O)N1CCN(c2ccccc2)CC1)C(O)C3` (stereo not drawn) [Cpd 102, 12,13-{2-[(4-phenyl-piperazin-1-yl)carbonyloxy]-3-hydroxy-butan-1,4-yl}-12,13-dihydro-5,7-dioxo-6H-indolo[2,3-a]pyrrolo[3,4-c]carbazole], the IC50 is 81 nM.

`CC(C)NC(=O)OCC1Cn2c3ccccc3c3c4c(c5c6ccccc6n(c5c32)C1)C(=O)NC4` (stereo not drawn) [Cpd 155]: the IC50 is 144 nM.

With `O=C1NCc2c1c1c3ccccc3n3c1c1c2c2ccccc2n1CCC(O)C(O)CC3` (stereo not drawn) [Cpd 21, 12,13-(3,4-dihydroxy-hexan-1,6-yl)-6,7,12,13-tetrahydro-5-oxo-5H-indolol[2,3-a]pyrrolo[3,4-c]carbazole], the IC50 was determined as 12 nM.

As to `O=C1NCc2c1c1c3ccccc3n3c1c1c2c2ccccc2n1Cc1c[nH]cc1C3` [Cpd 30, 12,13-(1H-pyrrol[3,4-b]butan-1,4-yl)-6,7,12,13-tetrahydro-5-oxo-5H-indolo[2,3-a]pyrrolo[3,4-c]carbazole], the IC50 was determined as 68 nM.

Regarding `CC(C)OCc1ccc2c(c1)c1c3c(c4c5cc(Br)ccc5n5c4c1n2CC(CO)C5)C(=O)NC3` (stereo not drawn) [Cpd 209, 3-bromo-9-(isopropoxymethyl)-12,13-(2-hydroxymethyl-propan-1,3-yl)-6,7,12,13-tetrahydro-5-oxo-5H-indolo[2,3-a]pyrrolo[3,4-c]carbazole], the IC50 turned out to be 70 nM.

Consider `O=C1NCc2c1c1c3ccccc3n3c1c1c2c2ccccc2n1C/C=C\C3` [Cpd 2, 12,13-(but-2-en-1,4-yl)-6,7,12,13-tetrahydro-5-oxo-5H-indolo[2,3-a]pyrrolo[3,4-c]carbazole], for which the IC50 amounted to 40 nM.

`O=C1NCc2c1c1c3cc(Br)ccc3n3c1c1c2c2ccccc2n1C/C=C\C3` [Cpd 6, 3-bromo-12,13-(but-2-en-1,4-yl)-6,7,12,13-tetrahydro-5-oxo-5H-indolo[2,3-a]pyrrolol [3,4-c]carbazole]: the half-maximal inhibitory concentration (IC50) was 171 nM.

With `O=C1NC(=O)c2c1c1c3ccccc3n3c1c1c2c2ccccc2n1CC(O)(C(=O)N1CCOCC1)C(O)C3` (stereo not drawn) [Cpd 121, 12,13-[2-(morpholin-4-yl-carbonyl)-2,3-dihydroxy-butan-1,4-yl]-12,13-dihydro-5,7-dioxo-6H-indolo[2,3-a]pyrrolo[3,4-c]carbazole], the IC50 was 54 nM.

On to `COC(=O)C1(O)Cn2c3ccccc3c3c4c(c5c6ccccc6n(c5c32)CC1O)C(=O)NC4=O` (stereo not drawn) [Cpd 12, 12,13-(2-methoxycarbonyl-2,3-dihydroxy-butan-1,4-yl)-12,13-dihydro-5,7-dioxo-6H-indolo[2,3-a]pyrrolo[3,4-c]carbazole], for which the IC50 was 1 nM.

As to `O=C1NCc2c1c1c3ccccc3n3c1c1c2c2ccccc2n1CC(CO)(CO)C3` [Cpd 27, 12,13-(2,2-bis-hydroxymethyl-propan-1,3-yl)-6,7,12,13-tetrahydro-5-oxo-5H-indolo[2,3-a]pyrrolo[3,4-c]carbazole], the 50% inhibitory concentration (IC50) worked out at 15 nM.

In the case of `CN(C)CCCN1CCN(C(=O)OC2CCn3c4ccccc4c4c5c(c6c7ccccc7n(c6c43)C2)C(=O)NC5=O)CC1` (stereo not drawn) [Cpd 68, 12,13-(2-{[4-(3-dimethylamino-prop-1-yl)piperazin-1-yl]carbonyloxy}-butan-1,4-yl)-12,13-dihydro-5,7-dioxo-6H-indolo[2,3-a]pyrrolo[3,4-c]carbazole], the IC50 turned out to be 433 nM.

As for `O=C(NCCCN1CCOCC1)OC1CCn2c3ccccc3c3c4c(c5c6ccccc6n(c5c32)C1)C(=O)NC4=O` (stereo not drawn) [Cpd 42, 12,13-{2-[(3-morpholin-4-yl-prop-1-yl)carbamoyloxy]-butan-1,4-yl}-12,13-dihydro-5,7-dioxo-6H-indolo[2,3-a]pyrrolo[3,4-c]carbazole], the IC50 was found to be 149 nM.

As for `O=C(NCCCn1ccnc1)OCC1(O)Cn2c3ccccc3c3c4c(c5c6ccccc6n(c5c32)C1)C(=O)NC4` (stereo not drawn) [Cpd 152, 12,13-{2-hydroxy-2-[(3-1H-imidazol-1-yl-prop-1-yl)carbamoyloxymethyl]-propan-1,3-yl}-6,7,12,13-tetrahydro-5-oxo-5H-indolo[2,3-a]pyrrolo[3,4-c]carbazole], the IC50 turned out to be 84 nM.

As to `O=C1NCc2c1c1c3ccccc3n3c1c1c2c2ccccc2n1CC(O)(COC(=O)N1CCN(C2CCCCC2)CC1)C3` (stereo not drawn) [Cpd 142, 12,13-{2-hydroxy-2-[(4-cyclohexyl-piperazin-1-yl)carbonyloxymethyl]-propan-1,3-yl}-6,7,12,13-tetrahydro-5-oxo-5H-indolo[2,3-a]pyrrolo[3,4-c]carbazole], the IC50 is more than 200 nM.

As to `O=C(NC1CCNCC1)OC1CCn2c3ccccc3c3c4c(c5c6ccccc6n(c5c32)C1)C(=O)NC4=O` (stereo not drawn) [Cpd 75, 12,13-[2-(piperidin-4-yl-carbamoyloxy)-butan-1,4-yl]-12,13-dihydro-5,7-dioxo-6H-indolo[2,3-a]pyrrolo[3,4-c]carbazole], the IC50 is 35 nM.

Turning to `CN(C)CCNC(=O)OC1CCCn2c3ccccc3c3c4c(c5c6ccccc6n(c5c32)C1)C(=O)NC4=O` (stereo not drawn) [Cpd 114, 12,13-{2-[(2-dimethylamino-ethyl)carbamoyloxy]-pentan-1,5-yl}-12,13-dihydro-5,7-dioxo-6H-indolo[2,3-a]pyrrolo[3,4-c]carbazole], the IC50 is 125 nM.

`O=C(NCCc1ccccn1)OCC1(O)Cn2c3ccccc3c3c4c(c5c6ccccc6n(c5c32)C1)C(=O)NC4` (stereo not drawn) [Cpd 139]: the IC50 is 160 nM.

Take `CC(C)OCc1ccc2c(c1)c1c3c(c4c5ccccc5n5c4c1n2CC(CO)C5)CNC3=O` (stereo not drawn) [Cpd 211, 9-(isopropoxymethyl)-12,13-(2-hydroxymethyl-propan-1,3-yl)-6,7,12,13-tetrahydro-5-oxo-5H-indolo[2,3-a]pyrrolo[3,4-c]carbazole]: the IC50 is 107 nM.

Take `O=C1NCc2c1c1c3ccccc3n3c1c1c2c2ccccc2n1CC(O)(COC(=O)N1CCC(O)CC1)C3` (stereo not drawn) [Cpd 149, 12,13-{2-hydroxy-2-[(4-hydroxy-piperidin-1-yl)carbonyloxymethyl]-propan-1,3-yl}-6,7,12,13-tetrahydro-5-oxo-5H-indolo[2,3-a]pyrrolo[3,4-c]carbazole]: the IC50 was found to be 39 nM.

In the case of `O=C1NC(=O)c2c1c1c3ccccc3n3c1c1c2c2ccccc2n1CC(O)(C(=O)N1CCN(CC(=O)N2CCCC2)CC1)C(O)C3` (stereo not drawn) [Cpd 133, 12,13-(2-{[4-(pyrrolidin-1-yl-carbonylmethyl)piperazin-1-yl]carbonyl}-2,3-dihydroxy-butan-1,4-yl)-12,13-dihydro-5,7-dioxo-6H-indolo[2,3-a]pyrrolo[3,4-c]carbazole], the IC50 was determined as 54 nM.

Take `CN1CCC(N(C)C(=O)OC2Cn3c4ccccc4c4c5c(c6c7ccccc7n(c6c43)CC2O)C(=O)NC5=O)C1` (stereo not drawn) [Cpd 108, 12,13-(2-{[N-methyl-N-(1-methyl-pyrrolidin-3-yl)]carbamoyloxy}-3-hydroxy-butan-1,4-yl)-12,13-dihydro-5,7-dioxo-6H-indolo[2,3-a]pyrrolo[3,4-c]carbazole]: the half-maximal inhibitory concentration (IC50) came to 46 nM.

With `O=C1NCc2c1c1c3ccccc3n3c1c1c2c2ccccc2n1CC(O)(COC(=O)N1CCC(CO)CC1)C3` (stereo not drawn) [Cpd 143, 12,13-{2-hydroxy-2-[(4-hydroxymethyl-piperidin-1-yl)carbonyloxymethyl]-propan-1,3-yl}-6,7,12,13-tetrahydro-5-oxo-5H-indolo[2,3-a]pyrrolo[3,4-c]carbazole], the IC50 is approximately 200 nM.

As for `C=C1Cn2c3ccccc3c3c4c(c5c6ccccc6n(c5c32)C1)C(=O)NC4` [Cpd 22, 12,13-(2-methylene-propan-1,3-yl)-6,7,12,13-tetrahydro-5-oxo-5H-indolo[2,3-a]pyrrolo[3,4-c]carbazole], the IC50 is 72 nM.

One may read the IC50 as the concentration at which inhibition is half-maximal.
